Experimental findings from US20090206245A1, “Mass analysis method using fine metal particles” (Shionogi CO., Ltd, priority 2004, published 2009) are described below.

Molecules are shown by their SMILES.

In this assay the target is β1-4 galactosyltransferase (GalT). The experiment in a line: Inhibiting activity of UDP against GalT reaction on a sugar chain (GlcNAc)-fine gold particle complex, tracked by MALDI-TOF MS. It is filed as biochemical. The note with it: GlcNAc-Au 50 μM, UDP-Gal 400 μM, four mU GalT, HEPES buffer (10 mM MnCl2, 0.15 M NaCl), 25° C., 60 minutes; from plot of FIG. 8. On the procedure:
100 μL of MHEPES buffer solution (10 mM MnCl2, 0.15 M NaCl) of the sugar chain-fine gold particles (GlcNAc-Au:50 μM) produced in accordance with Example 4 and UDP-Gal (400 μM), was prepared. Four mU of β1-4 galactosyltransferase (GalT) was added to the buffer solution, and the sugar chain elongation reaction was tracked at 25° C. by using MALDI-TOF Mass spectroscopy. The reaction solution was not subjected to centrifugal filtration, but to MALDI-TOF mass spectrometry using 2,5-dihydroxybenzoic acid (DHB) as a matrix (FIG. 6). […] FIG. 7 indicates a plot representing temporal variation in extent of the sugar-chain elongation reaction, which was derived from the spectrum shown in FIG. 6.
100 μL of MHEPES buffer solution (10 mM MnCl2, 0.15 M NaCl) of the sugar chain-fine gold particles (GlcNAc-Au: 50 μM) produced in accordance with Example 4 and UDP-Gal (400 μM), was prepared. Four mU of β1-4 galactosyltransferase (GalT) and UDP (prepared at nine concentration levels in the range of 0-50 μM) was then added to the buffer solution, and the solution was subjected to reaction at 25° C. for 60 minutes.

The term IC50 denotes the concentration at which inhibition is half-maximal. Read a high IC50 as lower potency.

Compound `O=c1ccn([C@@H]2O[C@H](COP(=O)(O)OP(=O)(O)O)[C@@H](O)[C@H]2O)c(=O)[nH]1` [UDP] gave an IC50 of 300 µM.
